Measurements from patent US7432247B2, “Methods of cardioprotection using dichloroacetate in combination with an inotrope” (The Governors of the University of Alberta, priority 2002, dated 2008).
“And” between values parts separate entries of the source, which are not always exact repeats. Equal entries are not always repeated.

Tests used:
Type in all cases: in vivo, human
[1] = Mortality in the adult CABG study (Example A); conditions: DCA group, 8 adult patients, 50 mg/kg bolus
Experimental: DCA or saline was administered to 18 patients undergoing elective cardiac bypass grafting surgery (CABG) in a double blinded randomized manner DCA (50 mg/kg in 100 ml of saline) or placebo was injected into the aortic root, immediately prior to removing aortic cross clamp. Based on the pharmacokinetics of DCA, we anticipated that this would produce a plasma concentration of approximately 1 mM. The study consisted of 8 DCA-treated patients and 10 placebo-treated patients.
The intervention involved DCA (50 mg/kg) or placebo injected into the aortic root immediately prior to removing aortic cross clamp. The coded solution was made such that a dose of 1 ml/kg provides the appropriate dose of DCA or placebo. Based on the pharmacokinetics of DCA, this was expected to result in a plasma level of DCA in the therapeutic range of (1 mM). All blood samples were analyzed by HPLC for DCA concentration.

[2] = Pediatric heart surgery study, DCA bolus and infusion vs placebo: inotrope score, ICU time, ventilator time (Example C); parameters: reduction of Inotrope Score compared to placebo: concentration or dose not given beside the values; conditions: for average decrease in Inotrope Score per patient compared to placebo: over the 24 hour period
Experimental: This study was a randomized, placebo-controlled, double blinded, single surgeon, study of the use of DCA in 51 high-risk pediatric patients requiring heart surgery to correct complex congenital heart lesions.
(§1) In this trial, 53 infants were recruited to participate in a study, of which 51 patients met inclusion criteria after parental consent. Two dosing groups resulted from the study team changing the dosing protocol after the data from the initial 10 patients were analyzed. The data from patients number 1 to number 10 was analyzed for DCA therapeutic blood levels and therapeutic effect. A recommendation by the research team was made to increase the bolus dose of DCA and to decrease the infusion dose of DCA to maintain a DCA dose range of 1 mM for 24 hours. The intent was to administer the new protocol at patient number 20. The 1997 Epicore power calculations were based on separation of the study groups patients into group A of n=20 patients and Group B of n=31 patients
(§2) DCA (50 mg/kg) or placebo was injected into the aortic root immediately prior to removing aortic cross clamp. The coded solutions were made such that a dose of 1 ml/kg provided either a DCA therapeutic level of 1 mM plasma concentration of DCA, or a placebo solution. Immediately thereafter, an infusion of DCA at 25 mg/kg/hr or placebo in the same volume was initiated and run for 24 hours. Based on the pharmacokinetics of DCA, this was expected to maintain plasma levels of DCA in the therapeutic range of (0.2-1 mM). However, the plasma concentrations of DCA were below 1 mM after the first hour interval, and that the 24 hour plasma concentrations were elevated above 1 mM DCA levels at the 24 hour interval, a decision was made to modify the dosing protocol. This change in dosing protocol was approved by the Ethics Committee, but not implemented until patient number 24. All blood samples were analyzed by HPLC for DCA concentration. • (ii) Group B
(§3) DCA (100 mg/kg) or placebo was injected into the aortic root immediately prior to removing aortic cross clamp. The coded solutions were made such that a dose of 1 ml/kg provided either a DCA therapeutic level of 1 mM plasma concentration of DCA, or a placebo solution. Immediately thereafter, an infusion of DCA at 12.5 mg/kg/hr or placebo in the same volume was initiated and run for 24 hours. Based on the pharmacokinetics of DCA, this was expected to maintain plasma levels of DCA in the therapeutic range of (0.2-1 mM). All blood samples were analyzed by HPLC for DCA concentration.
In both the operating room at the end of cardiopulmonary bypass and in the intensive care unit, parenteral drugs were scored on an hourly basis with 1 point allotted for each level for each bolus or infusion given within the previous hour within the first 24 hours post-operatively. Thus at the end of 24 hours, high scores indicated poorer cardiac function.

[3] = Observed side effects of DCA in patients
[4] = DCA plasma levels in pediatric heart surgery patients, bolus and 24 hour infusion (Example C); conditions: for Average Optimum Mean of DCA Plasma Levels, mM at 1 hr / Average Optimum Mean of DCA Plasma Levels, mM at 6 hr / Average Optimum Mean of DCA Plasma Levels, mM at 12 hr / Average Optimum Mean of DCA Plasma Levels, mM at 24 hr: patients with greatest degree of clinical benefits
Experimental: as §1, §2, §3
Arterial blood samples were obtained from patients at the following times:
c. One hour after discontinuing cardiopulmonary bypass.
d. Six hours after discontinuing cardiopulmonary bypass
e. Twelve hours after discontinuing cardiopulmonary bypass.
f. Twenty four hours after discontinuing cardiopulmonary bypass.
Blood samples were collected from indwelling arterial lines into citrate-containing tubes (0.5 ml blood samples). The samples were spun in the microfuge, the plasma separated, and frozen immediately for later analysis. All plasma samples were stored at −80 degrees centigrade, until further processing. Plasma glucose and lactate were determined using a Sigma glucose kit and a spectrophotometric assay involving lactate dehydrogenase respectively. Plasma fatty acid levels were measured using an ELISA system and WAKO free fatty acid kit.

[5] = Plasma DCA levels after 50 mg/kg bolus in adult CABG patients (Example A); conditions: 50 mg/kg Na+ dichloroacetate, 1 hour following administration, n = 8 adult patients
Experimental: […] Based on the pharmacokinetics of DCA, we anticipated that this would produce a plasma concentration of approximately 1 mM. The study consisted of 8 DCA-treated patients and 10 placebo-treated patients.
[…] The coded solution was made such that a dose of 1 ml/kg provides the appropriate dose of DCA or placebo. Based on the pharmacokinetics of DCA, this was expected to result in a plasma level of DCA in the therapeutic range of (1 mM). All blood samples were analyzed by HPLC for DCA concentration.
Plasma samples were processed for DCA levels using a high performance liquid chromatography (HPLC) technique that separated the DCA from other plasma constituents. In brief, 20 μl of plasma sample was injected into a Beckman Gold HPLC containing a IonoBpher 5A column (250×4.6 mm LxID) and a AX Guard Column. The mobile phase of the column consisted of 10^-3 M pyromellitate buffer (pH=4.0). The flow rate of the HPLC was set at 3.0 ml/min and the DCA eluted from the column was detected by comparing DCA elution times to acetate, monochloroacetate, and trichloroacetate standards. Heart ventricular biopsy samples were taken at 0, and 20 minutes, and at 1 hour, following release of the cross clamp and reperfusion of the heart muscle, and immediately frozen in liquid N2. Blood samples were also taken at various intervals during the reperfusion period between 0 to 24 hours post-surgery.

[6] = Group A: 50 mg/kg bolus and 25 mg/kg/hour infusion
[7] = Group A: 50 mg/kg bolus and 25 mg/kg/hour infusion, 23 patients
[8] = Group B: 100 mg/kg bolus and 12.5 mg/kg/hour infusion
[9] = Group B: 100 mg/kg bolus and 12.5 mg/kg/hour infusion, 24 patients
[10] = Group A: 50 mg/kg bolus and 25 mg/kg/hr infusion
[11] = Group B: 100 mg/kg bolus and 12.5 mg/kg/hr infusion

O=C(O)C(Cl)Cl [DCA, dichloroacetate]
mortality [1]: no mortalities
decrease of ventilator time compared to placebo [2, 6]: 47%
reduction of ventilator time compared to placebo [2, 6]: 46 h
decrease of time in ICU compared to placebo [2, 7]: 41%
reduction of time in ICU compared to placebo [2, 7]: 60 h
reduction of Inotrope Score compared to placebo ([2]; Group A, by 1 hour): 50%
reduction of Inotrope Score compared to placebo ([2]; Group A, by 12 hours): 45%
reduction of Inotrope Score compared to placebo ([2]; Group A, by 24 hours): 38%
average decrease in Inotrope Score per patient compared to placebo ([2]; Group A): 44%
decrease of ventilator time compared to placebo [2, 8]: 23%
reduction of ventilator time compared to placebo [2, 8]: 18 h and 19 h
decrease of time in ICU compared to placebo [2, 9]: 40%
reduction of time in ICU compared to placebo [2, 9]: 50 h
reduction of Inotrope Score compared to placebo ([2]; Group B, by 1 hour): 57%
reduction of Inotrope Score compared to placebo ([2]; Group B, by 12 hours): 49%
reduction of Inotrope Score compared to placebo ([2]; Group B, by 24 hours): 45%
average decrease in Inotrope Score per patient compared to placebo ([2]; Group B): 51%
side-effects ([3]; patients): not have significant side-effects, although some patients experience mild drowsiness
adverse effects in previous (pilot) studies ([3]; previous studies): no adverse effects
optimum mean DCA plasma level ([4]; Example C, Group B, 1 to 6 hour interval): 1 mM
Average DCA Plasma Levels, mM at 6 hr [4, 10]: 1.134 mM
Average DCA Plasma Levels, mM at 12 hr [4, 10]: 1.771 mM
Average Optimum Mean of DCA Plasma Levels, mM at 1 hr [4, 10]: 1.0 mM
Average Optimum Mean of DCA Plasma Levels, mM at 6 hr [4, 10]: 0.916 mM
Average Optimum Mean of DCA Plasma Levels, mM at 12 hr [4, 10]: 1.52 mM and 1.523 mM
Average Optimum Mean of DCA Plasma Levels, mM at 24 hr [4, 10]: 2.29 mM and 2.288 mM
Average DCA Plasma Levels, mM at 1 hr [4, 11]: 1.131 mM
Average DCA Plasma Levels, mM at 6 hr [4, 11]: .894 mM
Average DCA Plasma Levels, mM at 12 hr [4, 11]: 1.427 mM
Average DCA Plasma Levels, mM at 24 hr [4, 11]: 2.231 mM
Average Optimum Mean of DCA Plasma Levels, mM at 1 hr [4, 11]: 1.012 mM
Average Optimum Mean of DCA Plasma Levels, mM at 6 hr [4, 11]: 1.0 mM
Average Optimum Mean of DCA Plasma Levels, mM at 12 hr [4, 11]: 1.0 mM
Average Optimum Mean of DCA Plasma Levels, mM at 24 hr [4, 11]: 1.0 mM
Plasma Dichloroacetate Levels [5]: approximately 1 mM
Plasma Dichloroacetate Levels ([5]; listed as Dichloroacetate): 0.948 ± 0.061 mM
